Here are results for nine compounds from PubChem BioAssay (NCI).

Common to all, as to experiment: NCI anticancer screen, dose series, 48 h
Assay [1] has as its system SF-539 CNS.
Assay [2] relates to MALME-3M melanoma.
Assay [3] concerns TK-10 renal.
Assay [4] deals with A498 renal.
Assay [5] deals with NCI-H23 lung.
Assay [6] has as its system SK-MEL-5 melanoma.
For assay [7], the system named is UACC-257 melanoma.
The subject of assay [8] is UACC-62 melanoma.
The subject of assay [9] is EKVX NSCLC.
The subject of assay [10] is MOLT-4 leukemia.

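Values below derive from 48-hour exposures of cells grown in 96-well plates, with endpoints linearly interpolated between the two concentrations bracketing the appropriate inhibition level. GI50 marks 50% less growth. TGI: concentration producing complete growth inhibition.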

For the compound `COc1cccc(-c2nn(-c3ccccc3)cc2-c2ccnc(NCCCNS(=O)(=O)c3ccc(C(F)(F)F)cc3)c2)c1`, the GI50 is 5.66 µM in assay [1]; 3.4 µM in assay [2]; 9.25 µM in assay [3]; 3.8 µM in assay [4]; 4.86 µM in assay [5]; 2.18 µM in assay [6]. Moreover, the GI50 was 6.3 µM in assay [7], 7.08 µM in [8] and 4.61 µM in [9]. The TGI is above 100 µM in [1]; above 100 µM in assay [2]; above 100 µM in assay [3]; above 100 µM in [4]; above 100 µM in [5]; 5.04 µM in [6]. Also, the figures for the TGI in [7], in [8] and in [9] were 55.9 µM, above 100 µM and above 100 µM, respectively.
Consider `O=C(CC1Sc2ccccc2NC1=O)NNc1ccc(F)cc1` (centres undefined), for which the GI50 in assay [1] is 16.3 µM; in [2], above 100 µM; in assay [3] it was above 100 µM; in [4], 83.5 µM; in assay [5], above 100 µM; in [6] it was 46.1 µM. Moreover, the GI50 in assay [10] was 5.52 µM; in assay [8], 6.94 µM; in assay [9], above 100 µM. For the same compound, the TGI in [1] is 61.8 µM; in [2] it was above 100 µM; in assay [3], above 100 µM; in assay [4], above 100 µM; in assay [5], above 100 µM; in assay [6] it was above 100 µM. Also, the TGI in assay [10], in assay [8] and in assay [9] was above 100 µM each time.
`CC(=N\O)/C(C)=N/O.CC(=N\O)/C(C)=N/O.[Fe].[NH2-].c1c[nH]cn1`: the GI50 in assay [1], in assay [2], in assay [3], in assay [4], in [6] and in [7] was above 100 µM in each case. The GI50 in assay [10], in [8] and in assay [9] was above 100 µM in each case. The TGI in assay [1], in assay [2], in assay [3], in assay [4], in assay [6] and in assay [7] was above 100 µM each time. Also, the TGI in [10], in assay [8] and in assay [9] was above 100 µM each time.
As to `COc1cc(NCCC2CCCCN2)c2ncccc2c1OC` (centres undefined), the GI50 in assay [1] is 14.1 µM; in assay [2], 14.2 µM; in assay [3] it was 22.1 µM; in assay [4], 22.6 µM; in assay [5] it was 7.09 µM; in assay [6], 4.28 µM. Also, the GI50 was 2.79 µM in assay [7], 2.24 µM in assay [8] and 15.6 µM in [9]. In addition, the TGI in assay [1] came to 28.5 µM; in assay [2], 30 µM; in assay [3], 39.7 µM; in assay [4], 41.8 µM; in assay [5] it was 31.3 µM; in assay [6], 14.9 µM. Also, the TGI in [7] was 9.36 µM; in assay [8], 6.19 µM; in [9], 48.6 µM.
Turning to `CCN(CC)CCCC(C)Nc1ccnc(/C=C/c2ccc(Cl)cc2)c1` (centres undefined), the TGI in [1] was 3.8 µM; in [2], 3.08 µM; in assay [3], 4.8 µM; in [4], 5.2 µM; in assay [5], 23.7 µM; in [6], 6.17 µM. For the same compound, the TGI was determined as 3.59 µM in assay [7], 3.69 µM in [8] and 15.6 µM in assay [9]. The GI50 in [4] was 1.62 µM.
On to `COc1ccc(C(Nc2ccccn2)c2cc(C(C)(C)C)cc(C(C)(C)C)c2O)cc1` (centres undefined), for which the TGI in [1] is above 100 µM; in assay [2] it was 24.4 µM; in assay [3], above 100 µM; in assay [4], above 100 µM; in assay [5], 51.2 µM; in assay [6] it was 31.3 µM. The TGI is above 100 µM in assay [7], 67.1 µM in assay [8] and above 100 µM in [9].
Consider `O=C(O)c1cc(Cl)cc(Cc2cc(Cl)cc(C(=O)O)c2O)c1O`, for which the TGI in assay [1], in assay [2], in [3], in [4], in [5] and in [6] was above 100 µM in each case. Further, the TGI in assay [10], in assay [8] and in assay [9] was above 100 µM each time.
Turning to `COc1ccc(NC(=O)c2cccc(C3CCc4c(cc(OC)c(OC)c4OC)O3)c2)cc1` (centres undefined), the GI50 in assay [1] was 2.52 µM; in assay [2], 2.69 µM; in [3], 3.75 µM; in assay [4], 1.37 µM; in assay [5], 4.56 µM; in [6], 1.67 µM. For the same compound, the GI50 was 3.72 µM in assay [7], 2.05 µM in [8] and 3.28 µM in [9]. The TGI in assay [1] is 7.01 µM; in [2], above 100 µM; in assay [3], above 100 µM; in assay [4], 5.7 µM; in [5], above 100 µM; in assay [6] it was 3.89 µM. Besides, the TGI in [7], in [8] and in [9] was above 100 µM each time.
For the compound `CCOC(=O)c1cc(C(=O)c2cc(OC)c(OC)c(OC)c2)n2ccc(-c3cc[n+](CC(=O)c4cc(OC)c(OC)c(OC)c4)cc3)cc12`, the GI50 was 1.61 µM in assay [1]; 1.73 µM in assay [2]; 1.79 µM in assay [3]; 1.96 µM in assay [4]; 1.81 µM in [6]; 3.13 µM in [7]. For the same compound, the GI50 is 2.32 µM in [8] and 2.64 µM in assay [9]. Moreover, the TGI in assay [1] worked out at 3.3 µM; in assay [2], 3.68 µM; in [3], 3.5 µM; in assay [4], 3.85 µM; in assay [6] it was 3.54 µM; in [7], 7.04 µM. Besides, the TGI was 5.72 µM in assay [8] and 10.3 µM in [9].
